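Briefly, cells in 96-well plates were exposed to five compound concentrations for 48 h, and endpoints were estimated by linear interpolation. GI50 marks 50% less growth.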 Calls of active or inactive are those of the source. Cut-off read from the data, not from the text of the source: active = GI50 up to about 1.1 µM and inactive = higher.
Tests used:
Experiment in all cases: NCI tumour cell line growth inhibition, 48 h
UACC-257 = tested on: UACC-257
KM12 = tested on: KM12
RXF 393 = tested on: RXF 393
ACHN = tested on: ACHN
DMS-114 = tested on: DMS-114
KM-20L2 = tested on: KM-20L2
CCRF-CEM = tested on: CCRF-CEM
LXFL 529 = tested on: LXFL 529
U-251 = tested on: U-251
EKVX = tested on: EKVX
OVCAR-8 = tested on: OVCAR-8
LOX IMVI = tested on: LOX IMVI
XF498 = tested on: XF498
UO-31 = tested on: UO-31
786-0 = tested on: 786-0
RXF 631 = tested on: RXF 631
SN12C = tested on: SN12C
SNB-78 = tested on: SNB-78
M14 = tested on: M14
SK-MEL-28 = tested on: SK-MEL-28
SK-MEL-5 = tested on: SK-MEL-5
HCT-116 = tested on: HCT-116
OVCAR-4 = tested on: OVCAR-4
UACC-62 = tested on: UACC-62
HCT-15 = tested on: HCT-15
TK-10 = tested on: TK-10
SK-OV-3 = tested on: SK-OV-3
NCI-H460 = tested on: NCI-H460
Malme-3M = tested on: Malme-3M
MOLT-4 = tested on: MOLT-4
NCI-H23 = tested on: NCI-H23
DMS-273 = tested on: DMS-273
A498 = tested on: A498
HOP-62 = tested on: HOP-62
NCI-H522 = tested on: NCI-H522
IGROV-1 = tested on: IGROV-1
COLO 205 = tested on: COLO 205
M19-MEL = tested on: M19-MEL
OVCAR-5 = tested on: OVCAR-5
SW-620 = tested on: SW-620
A549 = tested on: A549
SNB-19 = tested on: SNB-19
SF-295 = tested on: SF-295
HT-29 = tested on: HT-29
OVCAR-3 = tested on: OVCAR-3
DLD-1 = tested on: DLD-1
SF-539 = tested on: SF-539
SF-268 = tested on: SF-268
SNB-75 = tested on: SNB-75
SK-MEL-2 = tested on: SK-MEL-2
HL-60 = tested on: HL-60
RPMI-8226 = tested on: RPMI-8226
CAKI-1 = tested on: CAKI-1
HOP-92 = tested on: HOP-92
K562 = tested on: K562
SR = tested on: SR
HOP-18 = tested on: HOP-18
HCC 2998 = tested on: HCC 2998
NCI-H226 = tested on: NCI-H226

CC1=C(C(=O)Nc2ccccc2)C(c2ccc(Cl)c(Cl)c2)C(C(=O)Nc2ccccc2)=C(C)N1
GI50 (UACC-257): 12.7 µM (inactive) | GI50 (KM12): 13 µM (inactive) | GI50 (RXF 393): 8.61 µM (inactive) | GI50 (ACHN): 12.1 µM (inactive) | GI50 (DMS-114): 11.2 µM (inactive) | GI50 (KM-20L2): 14.9 µM (inactive) | GI50 (CCRF-CEM): 5.06 µM (inactive) | GI50 (LXFL 529): 12.9 µM (inactive) | GI50 (U-251): 14.5 µM (inactive) | GI50 (EKVX): 16.6 µM (inactive) | GI50 (OVCAR-8): 13.7 µM (inactive) | GI50 (LOX IMVI): 14.2 µM (inactive) | GI50 (XF498): 16.6 µM (inactive) | GI50 (UO-31): 13.2 µM (inactive) | GI50 (786-0): 12.8 µM (inactive) | GI50 (RXF 631): 12.4 µM (inactive) | GI50 (SN12C): 14.9 µM (inactive) | GI50 (SNB-78): 17.7 µM (inactive) | GI50 (M14): 11.5 µM (inactive) | GI50 (SK-MEL-28): 12.8 µM (inactive) | GI50 (SK-MEL-5): 14 µM (inactive) | GI50 (HCT-116): 10.4 µM (inactive) | GI50 (OVCAR-4): 9.75 µM (inactive) | GI50 (UACC-62): 10.2 µM (inactive) | GI50 (HCT-15): 10.9 µM | GI50 (TK-10): 33.9 µM (inactive) | GI50 (SK-OV-3): 15.1 µM (inactive) | GI50 (NCI-H460): 13 µM (inactive) | GI50 (Malme-3M): 12.7 µM (inactive) | GI50 (MOLT-4): 0.512 µM (active) | GI50 (NCI-H23): 12.5 µM (inactive) | GI50 (DMS-273): 13 µM (inactive) | GI50 (A498): 16.7 µM (inactive) | GI50 (HOP-62): 14.5 µM (inactive) | GI50 (NCI-H522): 11.6 µM (inactive) | GI50 (IGROV-1): 14.5 µM (inactive) | GI50 (COLO 205): 15.4 µM (inactive) | GI50 (M19-MEL): 12.9 µM (inactive) | GI50 (OVCAR-5): 18.3 µM (inactive) | GI50 (SW-620): 17 µM (inactive) | GI50 (A549): 7.48 µM (inactive) | GI50 (SNB-19): 12.9 µM (inactive) | GI50 (SF-295): 12.5 µM (inactive) | GI50 (HT-29): 12.2 µM (inactive) | GI50 (OVCAR-3): 11.7 µM (inactive) | GI50 (DLD-1): 12.1 µM (inactive) | GI50 (SF-539): 17.3 µM (inactive) | GI50 (SF-268): 12 µM (inactive) | GI50 (SNB-75): 14.2 µM (inactive)

O=C1NC2(O)c3ccccc3C(=O)C2(O)N1c1ccccc1 (stereo not drawn)
GI50 (UACC-257): > 100 µM (inactive) | GI50 (KM12): > 100 µM (inactive) | GI50 (DMS-114): > 100 µM (inactive) | GI50 (KM-20L2): > 100 µM (inactive) | GI50 (SK-MEL-2): > 100 µM (inactive) | GI50 (CCRF-CEM): > 100 µM (inactive) | GI50 (LXFL 529): > 100 µM (inactive) | GI50 (U-251): > 100 µM (inactive) | GI50 (HL-60): > 100 µM (inactive) | GI50 (EKVX): > 100 µM (inactive) | GI50 (OVCAR-8): > 100 µM (inactive) | GI50 (RPMI-8226): > 100 µM (inactive) | GI50 (LOX IMVI): > 100 µM (inactive) | GI50 (CAKI-1): > 100 µM (inactive) | GI50 (HOP-92): > 100 µM (inactive) | GI50 (K562): > 100 µM (inactive) | GI50 (XF498): > 100 µM (inactive) | GI50 (UO-31): > 100 µM (inactive) | GI50 (786-0): > 100 µM (inactive) | GI50 (RXF 631): > 100 µM (inactive) | GI50 (M14): > 100 µM (inactive) | GI50 (SK-MEL-28): > 100 µM (inactive) | GI50 (HCT-116): > 100 µM (inactive) | GI50 (OVCAR-4): > 100 µM (inactive) | GI50 (UACC-62): > 100 µM (inactive) | GI50 (HCT-15): > 100 µM | GI50 (TK-10): > 100 µM (inactive) | GI50 (SK-OV-3): > 100 µM (inactive) | GI50 (NCI-H460): > 100 µM (inactive) | GI50 (Malme-3M): > 100 µM (inactive) | GI50 (MOLT-4): > 100 µM (inactive) | GI50 (SR): > 100 µM (inactive) | GI50 (NCI-H23): > 100 µM (inactive) | GI50 (NCI-H522): > 100 µM (inactive) | GI50 (IGROV-1): > 100 µM (inactive) | GI50 (COLO 205): > 100 µM (inactive) | GI50 (M19-MEL): > 100 µM (inactive) | GI50 (OVCAR-5): > 100 µM (inactive) | GI50 (SW-620): > 100 µM (inactive) | GI50 (A549): > 100 µM (inactive) | GI50 (SNB-19): > 100 µM (inactive) | GI50 (HOP-18): > 100 µM (inactive) | GI50 (SF-295): > 100 µM (inactive) | GI50 (HT-29): > 100 µM (inactive) | GI50 (OVCAR-3): > 100 µM (inactive) | GI50 (HCC 2998): > 100 µM (inactive) | GI50 (DLD-1): > 100 µM (inactive) | GI50 (SF-539): > 100 µM (inactive) | GI50 (SF-268): > 100 µM (inactive) | GI50 (SNB-75): > 100 µM (inactive)

COC1=CC(=O)c2ccccc2C1(C)C1=NC(C)(C)CO1 (stereo not drawn)
GI50 (UACC-257): > 100 µM (inactive) | GI50 (KM12): > 100 µM (inactive) | GI50 (RXF 393): > 100 µM (inactive) | GI50 (ACHN): > 100 µM (inactive) | GI50 (DMS-114): > 100 µM (inactive) | GI50 (KM-20L2): > 100 µM (inactive) | GI50 (SK-MEL-2): > 100 µM (inactive) | GI50 (CCRF-CEM): > 100 µM (inactive) | GI50 (LXFL 529): > 100 µM (inactive) | GI50 (U-251): > 100 µM (inactive) | GI50 (HL-60): > 100 µM (inactive) | GI50 (EKVX): > 100 µM (inactive) | GI50 (OVCAR-8): > 100 µM (inactive) | GI50 (RPMI-8226): > 100 µM (inactive) | GI50 (CAKI-1): > 100 µM (inactive) | GI50 (HOP-92): > 100 µM (inactive) | GI50 (K562): > 100 µM (inactive) | GI50 (XF498): > 100 µM (inactive) | GI50 (UO-31): > 100 µM (inactive) | GI50 (786-0): > 100 µM (inactive) | GI50 (RXF 631): > 100 µM (inactive) | GI50 (SN12C): > 100 µM (inactive) | GI50 (NCI-H226): > 100 µM (inactive) | GI50 (M14): > 100 µM (inactive) | GI50 (SK-MEL-28): > 100 µM (inactive) | GI50 (SK-MEL-5): > 100 µM (inactive) | GI50 (HCT-116): > 100 µM (inactive) | GI50 (OVCAR-4): > 100 µM (inactive) | GI50 (UACC-62): > 100 µM (inactive) | GI50 (HCT-15): > 100 µM | GI50 (TK-10): > 100 µM (inactive) | GI50 (SK-OV-3): > 100 µM (inactive) | GI50 (NCI-H460): > 100 µM (inactive) | GI50 (Malme-3M): > 100 µM (inactive) | GI50 (MOLT-4): > 100 µM (inactive) | GI50 (SR): > 100 µM (inactive) | GI50 (NCI-H23): > 100 µM (inactive) | GI50 (DMS-273): > 100 µM (inactive) | GI50 (HOP-62): > 100 µM (inactive) | GI50 (NCI-H522): > 100 µM (inactive) | GI50 (IGROV-1): > 100 µM (inactive) | GI50 (COLO 205): > 100 µM (inactive) | GI50 (M19-MEL): > 100 µM (inactive) | GI50 (SW-620): > 100 µM (inactive) | GI50 (A549): > 100 µM (inactive) | GI50 (SNB-19): > 100 µM (inactive) | GI50 (HOP-18): > 100 µM (inactive) | GI50 (SF-295): > 100 µM (inactive) | GI50 (HT-29): > 100 µM (inactive) | GI50 (OVCAR-3): > 100 µM (inactive) | GI50 (DLD-1): > 100 µM (inactive) | GI50 (SF-539): > 100 µM (inactive) | GI50 (SF-268): > 100 µM (inactive) | GI50 (SNB-75): > 100 µM (inactive)

— ChEMBL document CHEMBL1201862, “PubChem BioAssay data set” (2004)
